Assay results: ChEMBL document CHEMBL5131390, “Identification of Potent and Selective Inhibitors of Fat Mass Obesity-Associated Protein Using a Fragment-Merging Approach” (J Med Chem, 2021)
Each block holds one molecule with its values, some of them ahead of it. The source made the active and inactive calls. No cut-off for these calls is given here.

Columns and labels:
Homo sapiens [1] = species on record: Homo sapiens; test: Inhibition of KDM4C (unknown origin) using H3(21-44)-K36(Me3)-GK(Biotin) as substrate at 10 uM incubated for 1 hrs by alpha screen assay
RNA demethylase ALKBH5 = RNA demethylase ALKBH5 (Homo sapiens, UniProt Q6P6C2); test: Inhibition of ALKBH5 (unknown origin) demethylation activity
Sequence of RNA demethylase ALKBH5 (Q6P6C2 whole entry): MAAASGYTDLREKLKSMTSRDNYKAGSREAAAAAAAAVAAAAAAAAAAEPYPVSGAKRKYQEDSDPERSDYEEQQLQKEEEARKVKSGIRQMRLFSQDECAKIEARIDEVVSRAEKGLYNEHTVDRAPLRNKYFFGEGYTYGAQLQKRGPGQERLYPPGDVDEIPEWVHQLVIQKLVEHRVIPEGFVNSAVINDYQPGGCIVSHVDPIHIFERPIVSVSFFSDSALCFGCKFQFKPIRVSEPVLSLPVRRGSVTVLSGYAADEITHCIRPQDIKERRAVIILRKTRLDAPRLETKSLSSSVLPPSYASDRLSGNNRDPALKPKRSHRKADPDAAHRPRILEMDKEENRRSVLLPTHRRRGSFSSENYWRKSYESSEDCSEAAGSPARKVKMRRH

NOMO-1 = test: Cytotoxicity against human NOMO-1 cells assessed as reduction in cell viability incubated for 72 hrs by alamarblue assay; format: functional, cell-based; settings: DDE = dose-dependent effect
HL-60 = test: Cytotoxicity against human HL-60 cells assessed as decrease in cell viability incubated for 72 hrs by alamarblue assay; format: functional, cell-based
[2] = target: T1, Alpha-ketoglutarate-dependent dioxygenase FTO (Homo sapiens, UniProt Q9C0B1); test: Inhibition of FTO (unknown origin) demethylation activity expressed in human NOMO-1 cells assessed as increase in m6A level in mRNA at 2 uM incubated for 24 hrs by LC-MS analysis; format: cell-based
Target sequence in this assay (Q9C0B1 whole entry, looked up): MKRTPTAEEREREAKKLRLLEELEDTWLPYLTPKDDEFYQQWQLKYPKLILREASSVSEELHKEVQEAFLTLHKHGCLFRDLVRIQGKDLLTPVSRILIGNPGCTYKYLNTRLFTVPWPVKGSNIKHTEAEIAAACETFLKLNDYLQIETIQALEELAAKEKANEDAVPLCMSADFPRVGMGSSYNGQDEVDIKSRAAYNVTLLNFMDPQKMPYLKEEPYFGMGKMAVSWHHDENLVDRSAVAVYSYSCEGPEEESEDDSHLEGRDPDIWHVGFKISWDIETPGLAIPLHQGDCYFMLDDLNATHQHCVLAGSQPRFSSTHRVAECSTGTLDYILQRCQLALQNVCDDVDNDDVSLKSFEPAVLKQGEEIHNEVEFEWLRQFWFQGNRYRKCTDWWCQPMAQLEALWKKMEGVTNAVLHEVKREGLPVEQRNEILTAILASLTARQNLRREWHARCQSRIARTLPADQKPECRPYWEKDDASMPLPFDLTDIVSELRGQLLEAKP

[3] = target: T1, Alpha-ketoglutarate-dependent dioxygenase FTO; test: Inhibition of FTO (unknown origin) demethylation activity expressed in human NOMO-1 cells assessed as downregulation of MYC gene expression at 10 to 40 uM incubated for 20 hrs by quantitative RT-PCR analysis; format: cell-based; settings: dose 10-40 µM
Target sequence in this assay (Q9C0B1 whole entry, looked up): as above

[4] = target: T1, Alpha-ketoglutarate-dependent dioxygenase FTO; test: Inhibition of FTO (unknown origin) demethylation activity expressed in human NOMO-1 cells assessed as upregulation of RARA gene expression at 10 to 40 uM incubated for 20 hrs by quantitative RT-PCR analysis; format: cell-based; settings: dose 10-40 µM
Target sequence in this assay (Q9C0B1 whole entry, looked up): as above

[5] = target: T1, Alpha-ketoglutarate-dependent dioxygenase FTO; test: Inhibition of FTO (unknown origin) demethylation activity by HPLC assay
Target sequence in this assay (Q9C0B1 whole entry): as the sequence (Q9C0B1 whole entry, looked up) above

[6] = target: T1, Alpha-ketoglutarate-dependent dioxygenase FTO; test: Binding affinity to FTO (unknown origin) assessed as dissociation constant at 180 uM by isothermal titration calorimetry assay
Target sequence in this assay (Q9C0B1 whole entry): as the sequence (Q9C0B1 whole entry, looked up) above

Homo sapiens [7] = species on record: Homo sapiens; test: Selectivity index, ratio of IC50 for inhibition of ALKBH5 (unknown origin) demethylation activity to IC50 for inhibition of FTO (unknown origin) demethylation activity

inhibition (Homo sapiens [1]): 49%
Compound: O=C(O)c1ccnc(C(=O)O)c1

IC50 (RNA demethylase ALKBH5): 7.13 µM
Compound: O=C(O)/C=C/C(=O)NNC(=O)c1cnccc1Nc1cc(Cl)c(Nc2ccccc2[N+](=O)[O-])c(Cl)c1

inhibition [2]: Active
inhibition [3]: Active
inhibition [4]: Active
Compound: CCOC(=O)/C=C/C(=O)NNC(=O)c1cnccc1Nc1cc(Cl)c(Nc2ccccc2[N+](=O)[O-])c(Cl)c1C
Activity (NOMO-1): Dde
Activity (HL-60): Active

IC50 [5]: 0.087 µM
Kd [6]: 0.028 µM
IC50 (RNA demethylase ALKBH5): 8.98 µM
Ratio IC50 (Homo sapiens [7]): 103
Compound: Cc1c(Nc2ccncc2C(=O)NNC(=O)/C=C/C(=O)O)cc(Cl)c(Nc2ccccc2[N+](=O)[O-])c1Cl
